This is an account of results in patent US12528815B2, “5-amino-8-(4-pyridyl)-[1,2,4]triazolo[4,3-c]pyrimidin-3-one compounds for use against cancer” (Nxera Pharma UK Limited, priority 2020, dated 2026).

Assay [1] addresses T1, human adenosine A1 receptor (Homo sapiens, UniProt P30542).
T1 construct: expressed in transfected cells; host or cells: HEK293 cells infected with BacMam (the same paragraph also labels the preparation CHO-hA1)
T1 sequence (P30542 1-326): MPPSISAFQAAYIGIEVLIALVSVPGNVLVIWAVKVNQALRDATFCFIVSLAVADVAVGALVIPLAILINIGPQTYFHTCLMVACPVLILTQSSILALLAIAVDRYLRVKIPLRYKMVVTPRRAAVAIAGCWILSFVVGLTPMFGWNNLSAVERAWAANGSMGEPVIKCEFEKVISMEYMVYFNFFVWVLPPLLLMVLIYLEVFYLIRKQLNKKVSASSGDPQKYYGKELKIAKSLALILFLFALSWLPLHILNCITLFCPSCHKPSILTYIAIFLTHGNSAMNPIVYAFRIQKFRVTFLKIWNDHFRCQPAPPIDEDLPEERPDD
The assay is described as follows: Inhibition binding assay, human adenosine A1 receptor membranes, [3H]DPCPX. The following applies: 1 nM [3H]DPCPX, 25° C., 1 h; IC50 converted to Ki with Cheng-Prusoff; read-out: A1 pKi (converted). The procedure, abridged: (§1)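 Membranes from BacMam-infected HEK293 cells (0.2 μg A2A, 1.4 μg A1) incubated 1 h at 25° C with test compound and 1 nM [3H]ZM241385 (A2A; 50 mM Tris-HCl pH 7.4) or [3H]DPCPX (A1; plus 100 mM NaCl, 10 mM MgCl2). Nonspecific: 1 μM CGS15943 or DPCPX. Filtration, scintillation; IC50 converted to Ki via Cheng-Prusoff.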

In assay [2] the target is T2, human adenosine A2A receptor (Homo sapiens, UniProt P29274).
T2 construct: expressed in transfected cells; host or cells: HEK293 cells infected with BacMam
T2 sequence (P29274 whole entry): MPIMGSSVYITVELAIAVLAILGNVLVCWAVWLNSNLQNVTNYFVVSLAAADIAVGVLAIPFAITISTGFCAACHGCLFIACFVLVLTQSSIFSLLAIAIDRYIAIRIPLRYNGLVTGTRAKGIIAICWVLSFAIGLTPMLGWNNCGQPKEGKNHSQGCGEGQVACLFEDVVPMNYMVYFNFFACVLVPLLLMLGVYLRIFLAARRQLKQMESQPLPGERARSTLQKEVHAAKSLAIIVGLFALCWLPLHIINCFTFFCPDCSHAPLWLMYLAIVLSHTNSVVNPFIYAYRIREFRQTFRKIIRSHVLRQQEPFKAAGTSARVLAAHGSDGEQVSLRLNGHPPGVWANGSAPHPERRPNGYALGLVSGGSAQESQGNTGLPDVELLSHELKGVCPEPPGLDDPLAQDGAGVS
Briefly: Inhibition binding assay, human adenosine A2A receptor membranes, [3H]ZM241385. The conditions noted are these: 1 nM [3H]ZM241385, HEK293-hA2A membranes, 25° C., 1 h; IC50 converted to Ki with Cheng-Prusoff; read-out: A2A pKi (converted). The procedure, abridged: as §1

`Cc1cc(-c2c(-c3ccccc3)nc(N)n3c(=O)n(Cc4ccc(F)cn4)nc23)cc(Cl)n1` [Example 1-76, 5-amino-8-(2-chloro-6-methyl-4-pyridyl)-2-[(5-fluoro-2-pyridyl)methyl]-7-phenyl-[1,2,4]triazolo[4,3-c]pyrimidin-3-one]: the values for the Ki in assay [1] and in assay [2] were 79.4 nM and 0.126 nM, respectively.
On the same counts, the results for `Cc1cc(-c2c(-c3ccc(F)cc3)nc(N)n3c(=O)n(CCC(F)(F)F)nc23)cc(C)[n+]1[O-]` [Example 2-58, 5-amino-8-(2,6-dimethyl-1-oxido-pyridin-1-ium-4-yl)-7-(4-fluorophenyl)-2-(3,3,3-trifluoropropyl)-[1,2,4]triazolo[4,3-c]pyrimidin-3-one] are 1000 nM and 50.1 nM.
Take `Cc1cc(-c2c(-c3ccccc3)nc(N)n3c(=O)n(CC45CC(C4)C5)nc23)cc(CO)n1` [Example 2-63, 5-amino-2-(3-bicyclo[1.1.1]pentanylmethyl)-8-[2-(hydroxymethyl)-6-methyl-4-pyridyl]-7-phenyl-[1,2,4]triazolo[4,3-c]pyrimidin-3-one]: the figures for the Ki in assay [1] and in assay [2] were 316 nM and 1.26 nM, respectively.
As for `COC(=O)C1(Cn2nc3c(-c4cc(C)nc(C)c4)c(-c4ccccc4)nc(N)n3c2=O)CCCC1` [Example 2-29, methyll-[[5-amino-8-(2,6-dimethyl-4-pyridyl)-3-oxo-7-phenyl-[1,2,4]triazolo[4,3-c]pyrimidin-2-yl]methyl]cyclopentanecarboxylate], the Ki in assay [1] was 126 nM; in assay [2], 0.501 nM.
On the same counts, the results for `Cc1cc(-c2c(-c3ccccc3)nc(N)n3c(=O)n(CC(CO)CO)nc23)cc(C)n1` [Example 2-24, 5-amino-8-(2,6-dimethyl-4-pyridyl)-2-[3-hydroxy-2-(hydroxymethyl)propyl]-7-phenyl-[1,2,4]triazolo[4,3-c]pyrimidin-3-one] are 794 nM and 10 nM.
On to `[2H]c1c([2H])c([2H])c(-c2nc(N)n3c(=O)n(CCC(F)(F)F)nc3c2-c2cc(C)nc(C)c2)c([2H])c1[2H]` [Example 2-32, 5-amino-8-(2,6-dimethyl-4-pyridyl)-7-(2,3,4,5,6-pentadeuteriophenyl)-2-(3,3,3-trifluoropropyl)-[1,2,4]triazolo[4,3-c]pyrimidin-3-one], for which the values for the Ki in assay [1] and in assay [2] were 398 nM and 0.501 nM, respectively.
Taken in the same sequence, the figures for `Cc1cc(-c2c(-c3ccccc3)nc(N)n3c(=O)n(C[C@H]4CN(C(=O)OC(C)(C)C)CCO4)nc23)cc(C)n1` [Example 2-65, tert-butyl (R)-2-((5-amino-8-(2,6-dimethylpyridin-4-yl)-3-oxo-7-phenyl-[1,2,4]triazolo[4,3-c]pyrimidin-2(3H)-yl)methyl)morpholine-4-carboxylate] were 501 nM and 12.6 nM.
Taken in the same sequence, the figures for `Cc1cc(-c2c(-c3ccccc3)nc(N)n3c(=O)n(CCN4CCC4)nc23)cc(C)n1` [Example 2-94, 5-amino-2-[2-(azetidin-1-yl)ethyl]-8-(2,6-dimethyl-4-pyridyl)-7-phenyl-[1,2,4]triazolo[4,3-c]pyrimidin-3-one] were over 2510 nM and 25.1 nM.
Take `Cc1cc(-c2c(-c3ccccc3)nc(N)n3c(=O)n(Cc4cccc(=O)[nH]4)nc23)cc(C)n1` [Example 1-9, 5-amino-8-(2,6-dimethyl-4-pyridyl)-2-[(6-oxo-1H-pyridin-2-yl)methyl]-7-phenyl-[1,2,4]triazolo[4,3-c]pyrimidin-3-one]: the Ki was 126 nM in assay [1] and 12.6 nM in assay [2].
Taken in the same sequence, the figures for `CNC(=O)c1cc(NCCn2nc3c(-c4cc(C)nc(C)c4)c(-c4ccccc4)nc(N)n3c2=O)ccc1Cl` [Example 1-91, 5-[2-[5-amino-8-(2,6-dimethyl-4-pyridyl)-3-oxo-7-phenyl-[1,2,4]triazolo[4,3-c]pyrimidin-2-yl]ethylamino]-2-chloro-N-methyl-benzamide] were 1000 nM and 39.8 nM.
